Results on nine compounds are retold here after ChEMBL document CHEMBL1909294, “Translating clinical findings into knowledge in drug safety evaluation--drug induced liver injury prediction system (DILIps)” (PLoS Comput Biol, 2011).

The subject of series [1] is Hepatotoxicity.
Series [2] relates to Hepatotoxicity. The source holds these as a separate data set.
Series [3] relates to Hepatotoxicity. The source holds these as a separate data set.
In series [4] the test system is Hepatotoxicity. The source holds these as a separate data set.
Series [5] concerns Hepatotoxicity. This is another data set of the same source.
Series [6] concerns Hepatotoxicity. The source holds these as a separate data set.
Series [7] concerns Hepatotoxicity. This is another data set of the same source.
Series [8] deals with Hepatotoxicity. This is another data set of the same source.
The subject of series [9] is Hepatotoxicity. The source holds these as a separate data set.
In series [10] the test system is Hepatotoxicity. The source holds these as a separate data set.
The test system of series [11] is Hepatotoxicity. This is another data set of the same source.
Series [12] concerns Hepatotoxicity. The source holds these as a separate data set.
The subject of series [13] is Hepatotoxicity. The source holds these as a separate data set.
The test system of series [14] is Hepatotoxicity. This is another data set of the same source.
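Throughout, for HepSE Combined Scores: combined hepatic side effect score as listed in the training data of the Drug Induced Liver Injury Prediction System (DILIps).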
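Throughout, for HepSE bilirubinemia: bilirubinemia hepatic side effect score drawn from the DILIps training data, a prediction system for drug-induced liver injury; call rule not given here.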
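Throughout, for HepSE cholecystitis: Cholecystitis-related hepatic side effect score drawn from the DILIps (drug-induced liver injury prediction) training data set; call rule not given here.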
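Throughout, for HepSE cholelithiasis: hepatic side effect score for cholelithiasis, drawn from the DILIps training data for predicting drug-induced liver injury; call rule not given here.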
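Throughout, for HepSE cirrhosis: cirrhosis hepatic side effect score taken from the DILIps (drug-induced liver injury prediction) training set; call rule not given here.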
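Throughout, for HepSE elevated liver function tests: hepatic side effect score for raised liver function tests, as recorded in the DILIps training set used for predicting drug-induced liver injury.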
Throughout, for HepSE hepatic failure: call rule not given here.
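Throughout, for HepSE hepatic necrosis: score of hepatic side effects for hepatic necrosis, drawn from the training data of DILIps, a prediction system for drug-induced liver injury; call rule not given here.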
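Throughout, for HepSE hepatitis: Hepatitis-related hepatic side effect score taken from the training data of DILIps, a prediction system for drug-induced liver injury; call rule not given here.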
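Throughout, for HepSE hepatomegaly: hepatic side effect score for hepatomegaly, taken from the training set of the DILIps drug-induced liver injury prediction system; call rule not given here.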
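Throughout, for HepSE jaundice: Jaundice-related hepatic side-effect score drawn from the training data of the DILIps (drug-induced liver injury prediction system); call rule not given here.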
Throughout, for HepSE liver disease: call rule not given here.
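Throughout, for HepSE liver fatty: hepatic side effect score for fatty liver, taken from the DILIps training set for predicting drug-induced liver injury; call rule not given here.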
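Throughout, for HepSE liver function tests abnormal: hepatic side effect score taken from the DILIps (drug-induced liver injury prediction system) training data, here covering abnormal liver function test findings.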

The compound `CCNC(=O)[C@@H]1CCCN1C(=O)[C@H](CCCNC(=N)N)NC(=O)[C@H](CC(C)C)NC(=O)[C@@H](COC(C)(C)C)NC(=O)[C@H](Cc1ccc(O)cc1)NC(=O)[C@H](CO)NC(=O)[C@H](Cc1c[nH]c2ccccc12)NC(=O)[C@H](Cc1cnc[nH]1)NC(=O)[C@@H]1CCC(=O)N1` [BUSERELIN] displayed a HepSE_hepatic necrosis in the series with Hepatotoxicity [1] of 0. In addition, the HepSE_cholelithiasis in the series on Hepatotoxicity [2] amounted to 0. In addition, the “HepSE_elevated liver function tests” value in the series on Hepatotoxicity [3] was found to be 0. Also, the HepSE_hepatitis with Hepatotoxicity [4] came out at 0. In the series with Hepatotoxicity [5], this compound came in with a HepSE_jaundice of 0. In the series on Hepatotoxicity [6], this compound returned a HepSE_cholecystitis of 0. Further, in the series with Hepatotoxicity [7], the HepSE_liver fatty came out at 0. In addition, in the series on Hepatotoxicity [8], the HepSE_cirrhosis is 0. In addition, the “HepSE_Combined Scores” value in the series on Hepatotoxicity [9] is reported as 0. Besides, the “HepSE_liver function tests abnormal” value in the series with Hepatotoxicity [10] is listed as 0. The same compound returned a HepSE_liver disease with Hepatotoxicity [11] of 0. Further, the HepSE_bilirubinemia in the series on Hepatotoxicity [12] is reported as 0. Moreover, the HepSE_hepatic failure in the series on Hepatotoxicity [13] was found to be 0. Also, the HepSE_hepatomegaly in the series with Hepatotoxicity [14] is 0.
With `CN1C[C@H](C(=O)N[C@]2(C)O[C@@]3(O)[C@@H]4CCCN4C(=O)[C@H](Cc4ccccc4)N3C2=O)C[C@@H]2c3cccc4[nH]cc(c34)C[C@H]21` [DIHYDROERGOTAMINE], the HepSE_hepatic necrosis with Hepatotoxicity [1] worked out at 0. In the series on Hepatotoxicity [2], this compound showed a HepSE_cholelithiasis of 0. The “HepSE_elevated liver function tests” value with Hepatotoxicity [3] stood at 0. Also, the HepSE_hepatitis with Hepatotoxicity [4] worked out at 0. The HepSE_jaundice in the series with Hepatotoxicity [5] came out at 0. This compound had a HepSE_cholecystitis in the series on Hepatotoxicity [6] of 0. This compound yielded a HepSE_liver fatty with Hepatotoxicity [7] of 0. In addition, in the series on Hepatotoxicity [8], the HepSE_cirrhosis came to 0. In addition, in the series with Hepatotoxicity [9], the “HepSE_Combined Scores” value was 0. For the same compound, the “HepSE_liver function tests abnormal” value in the series on Hepatotoxicity [10] was 0. This compound registered a HepSE_liver disease in the series on Hepatotoxicity [11] of 0. For the same compound, the HepSE_bilirubinemia in the series on Hepatotoxicity [12] came out at 0. For the same compound, the HepSE_hepatic failure in the series on Hepatotoxicity [13] was 0. Moreover, the HepSE_hepatomegaly with Hepatotoxicity [14] was 0.
Consider `COc1cc2ncnc(Nc3ccc(F)c(Cl)c3)c2cc1OCCCN1CCOCC1` [GEFITINIB], for which the HepSE_hepatic necrosis in the series with Hepatotoxicity [1] is recorded as 0. In the series with Hepatotoxicity [2], this compound returned a HepSE_cholelithiasis of 0. Besides, the “HepSE_elevated liver function tests” value with Hepatotoxicity [3] was determined as 0. Besides, in the series on Hepatotoxicity [4], the HepSE_hepatitis came out at 0. In the series on Hepatotoxicity [5], this compound came in with a HepSE_jaundice of 0. The compound also gave a HepSE_cholecystitis in the series with Hepatotoxicity [6] of 0. The compound further gave a HepSE_liver fatty with Hepatotoxicity [7] of 0. Besides, the HepSE_cirrhosis in the series on Hepatotoxicity [8] is listed as 0. Also, the “HepSE_Combined Scores” value in the series on Hepatotoxicity [9] is 0. Also, the “HepSE_liver function tests abnormal” value in the series on Hepatotoxicity [10] amounted to 0. The HepSE_liver disease in the series on Hepatotoxicity [11] came out at 0. In the series with Hepatotoxicity [12], the HepSE_bilirubinemia is given as 0. In the series on Hepatotoxicity [13], this compound gave a HepSE_hepatic failure of 0. In addition, the HepSE_hepatomegaly with Hepatotoxicity [14] turned out to be 0.
With `CC1=C(C(=O)O)N2C(=O)[C@@H](NC(=O)[C@H](N)C3=CCC=CC3)[C@H]2SC1` [CEPHRADINE], the HepSE_hepatic necrosis with Hepatotoxicity [1] was found to be 0. The compound also showed a HepSE_cholelithiasis with Hepatotoxicity [2] of 0. In addition, in the series on Hepatotoxicity [3], the “HepSE_elevated liver function tests” value was found to be 0. The HepSE_hepatitis with Hepatotoxicity [4] came to 0. The compound also yielded a HepSE_jaundice with Hepatotoxicity [5] of 0. In the series with Hepatotoxicity [6], the HepSE_cholecystitis came to 0. This compound displayed a HepSE_liver fatty in the series with Hepatotoxicity [7] of 0. In the series with Hepatotoxicity [8], this compound came in with a HepSE_cirrhosis of 0. For the same compound, the “HepSE_Combined Scores” value in the series with Hepatotoxicity [9] stood at 0. Besides, the “HepSE_liver function tests abnormal” value with Hepatotoxicity [10] is 0. This compound also yielded a HepSE_liver disease with Hepatotoxicity [11] of 0. In addition, the HepSE_bilirubinemia in the series with Hepatotoxicity [12] was 0. For the same compound, the HepSE_hepatic failure in the series with Hepatotoxicity [13] was determined as 0. The HepSE_hepatomegaly with Hepatotoxicity [14] came out at 0.
`Clc1ccccc1C(c1ccccc1)(c1ccccc1)n1ccnc1` [CLOTRIMAZOLE] gave a HepSE_hepatic necrosis in the series on Hepatotoxicity [1] of 0. Moreover, in the series on Hepatotoxicity [2], the HepSE_cholelithiasis worked out at 0. The “HepSE_elevated liver function tests” value in the series with Hepatotoxicity [3] was 0. Moreover, in the series with Hepatotoxicity [4], the HepSE_hepatitis was determined as 0. The compound also displayed a HepSE_jaundice in the series with Hepatotoxicity [5] of 0. The HepSE_cholecystitis with Hepatotoxicity [6] is 0. Also, the HepSE_liver fatty in the series on Hepatotoxicity [7] is 0. Also, in the series with Hepatotoxicity [8], the HepSE_cirrhosis amounted to 0. The “HepSE_Combined Scores” value in the series with Hepatotoxicity [9] amounted to 1. Also, the “HepSE_liver function tests abnormal” value in the series with Hepatotoxicity [10] was found to be 1. The same compound returned a HepSE_liver disease in the series on Hepatotoxicity [11] of 0. This compound returned a HepSE_bilirubinemia in the series with Hepatotoxicity [12] of 0. The HepSE_hepatic failure in the series with Hepatotoxicity [13] is 0. Also, the HepSE_hepatomegaly with Hepatotoxicity [14] is reported as 0.
`CNC1=Nc2ccc(Cl)cc2C(c2ccccc2)=[N+]([O-])C1` [CHLORDIAZEPOXIDE]: in the series on Hepatotoxicity [1], the HepSE_hepatic necrosis worked out at 0. Further, in the series on Hepatotoxicity [2], the HepSE_cholelithiasis came to 0. Further, the “HepSE_elevated liver function tests” value in the series on Hepatotoxicity [3] stood at 0. In the series on Hepatotoxicity [4], this compound came in with a HepSE_hepatitis of 0. The HepSE_jaundice in the series with Hepatotoxicity [5] was determined as 1. Also, the HepSE_cholecystitis with Hepatotoxicity [6] is reported as 0. The same compound returned a HepSE_liver fatty with Hepatotoxicity [7] of 0. This compound displayed a HepSE_cirrhosis with Hepatotoxicity [8] of 0. For the same compound, in the series on Hepatotoxicity [9], the “HepSE_Combined Scores” value is recorded as 1. The “HepSE_liver function tests abnormal” value with Hepatotoxicity [10] stood at 0. In addition, the HepSE_liver disease in the series on Hepatotoxicity [11] is on record as 0. In the series on Hepatotoxicity [12], this compound had a HepSE_bilirubinemia of 0. In addition, in the series with Hepatotoxicity [13], the HepSE_hepatic failure was 0. The compound also displayed a HepSE_hepatomegaly with Hepatotoxicity [14] of 0.
The compound `c1ccc2c(c1)CCCC2C1=NCCN1` (stereo unspecified) [TETRAHYDROZOLINE] showed a HepSE_hepatic necrosis with Hepatotoxicity [1] of 0. Also, in the series on Hepatotoxicity [2], the HepSE_cholelithiasis came out at 0. The “HepSE_elevated liver function tests” value with Hepatotoxicity [3] amounted to 0. In the series with Hepatotoxicity [4], this compound displayed a HepSE_hepatitis of 0. The HepSE_jaundice in the series on Hepatotoxicity [5] worked out at 0. In addition, the HepSE_cholecystitis in the series with Hepatotoxicity [6] is recorded as 0. This compound yielded a HepSE_liver fatty in the series on Hepatotoxicity [7] of 0. Moreover, the HepSE_cirrhosis in the series on Hepatotoxicity [8] is on record as 0. For the same compound, the “HepSE_Combined Scores” value in the series on Hepatotoxicity [9] is listed as 0. The “HepSE_liver function tests abnormal” value in the series with Hepatotoxicity [10] is recorded as 0. Moreover, in the series with Hepatotoxicity [11], the HepSE_liver disease came out at 0. For the same compound, the HepSE_bilirubinemia with Hepatotoxicity [12] was found to be 0. In the series on Hepatotoxicity [13], this compound came in with a HepSE_hepatic failure of 0. In the series on Hepatotoxicity [14], the HepSE_hepatomegaly was found to be 0.
In the series on Hepatotoxicity [1], `[N]=O` [NITRIC OXIDE] had a HepSE_hepatic necrosis of 0. The same compound gave a HepSE_cholelithiasis in the series with Hepatotoxicity [2] of 0. Also, in the series with Hepatotoxicity [3], the “HepSE_elevated liver function tests” value came out at 0. The HepSE_hepatitis in the series with Hepatotoxicity [4] was 0. The compound further returned a HepSE_jaundice in the series on Hepatotoxicity [5] of 0. Moreover, the HepSE_cholecystitis in the series on Hepatotoxicity [6] worked out at 0. This compound also showed a HepSE_liver fatty with Hepatotoxicity [7] of 0. The compound further came in with a HepSE_cirrhosis in the series on Hepatotoxicity [8] of 0. Further, in the series with Hepatotoxicity [9], the “HepSE_Combined Scores” value is 0. Also, the “HepSE_liver function tests abnormal” value in the series with Hepatotoxicity [10] is recorded as 0. This compound also had a HepSE_liver disease in the series on Hepatotoxicity [11] of 0. This compound gave a HepSE_bilirubinemia in the series with Hepatotoxicity [12] of 0. Also, the HepSE_hepatic failure in the series on Hepatotoxicity [13] is given as 0. For the same compound, the HepSE_hepatomegaly with Hepatotoxicity [14] is recorded as 0.
With `C[C@H](O)C(=O)Nc1c(I)c(C(=O)NC(CO)CO)c(I)c(C(=O)NC(CO)CO)c1I` [IOPAMIDOL], in the series on Hepatotoxicity [1], the HepSE_hepatic necrosis was found to be 0. The compound also returned a HepSE_cholelithiasis in the series on Hepatotoxicity [2] of 0. For the same compound, the “HepSE_elevated liver function tests” value with Hepatotoxicity [3] was determined as 0. The compound also came in with a HepSE_hepatitis in the series with Hepatotoxicity [4] of 0. The HepSE_jaundice with Hepatotoxicity [5] is reported as 0. Also, the HepSE_cholecystitis in the series with Hepatotoxicity [6] amounted to 0. Also, in the series with Hepatotoxicity [7], the HepSE_liver fatty turned out to be 0. Further, the HepSE_cirrhosis in the series on Hepatotoxicity [8] was determined as 0. Besides, in the series with Hepatotoxicity [9], the “HepSE_Combined Scores” value amounted to 0. Moreover, the “HepSE_liver function tests abnormal” value in the series with Hepatotoxicity [10] amounted to 0. In addition, the HepSE_liver disease in the series on Hepatotoxicity [11] is given as 0. Moreover, the HepSE_bilirubinemia in the series on Hepatotoxicity [12] is reported as 0. In the series with Hepatotoxicity [13], this compound had a HepSE_hepatic failure of 0. This compound also showed a HepSE_hepatomegaly with Hepatotoxicity [14] of 0.
